Measured values: paper PMC8306139, “A Novel Dialkylamino-Functionalized Chalcone, DML6, Inhibits Cervical Cancer Cell Proliferation, In Vitro, via Induction of Oxidative Stress, Intrinsic Apoptosis and Mitotic Catastrophe” (Molecules, 2021)

tested on: cancer cell lines; assay: MTT assay, panel of cancer cell lines; type: cell-based; conditions: not given

SMILES | anti-proliferative efficacy in a wide range of cancer cell lines, compared to normal cells
COc1ccc(C(=O)/C=C/c2ccc(N(C)C)cc2)cc1OC [DML4, (E)-1-[3,4-dimethoxyphenyl]-3-(4-(dimethylamino)phenyl)prop-2-en-1-one] | moderate to good anti-proliferative efficacy

tested on: A549; assay: MTT assay, A549; type: cell-based; conditions: 72 h, read-out: IC50 ± SD Lung A549
Protocol: (§1) The concentration of the tested compounds that produced a 50% inhibition of cell growth (IC50) was determined.
(§2) A panel of cancer cell lines, including cervical (OV2008 and HeLa), breast (MDA-MB-231), lung (A549) and colon (LOVO), prostate (DU145), human embryonic kidney cells (HEK293), human colon fibroblast cells (CRL1459), and Chinese hamster ovary cells (CHO), were grown as adherent monolayers in flasks containing Dulbecco’s modified Eagle medium (DMEM), supplemented with 10% fetal bovine serum (FBS) and 1% penicillin and streptomycin, in a humidified incubator with 5% CO2 at 37 °C.
(§3) The cells were seeded evenly (180 μL/well) in 96-well plates, at a density of 3000–5000 cells/well and incubated with serial dilutions of the compounds ranging from 0.1 to 100 μM. The MTT dye (4 mg/ml) was added after 72 h of incubation and incubated with the cells for an additional 4 h at 37 °C, allowing the viable cells to biotransform the yellow-colored MTT into dark-blue formazan crystals. Following incubation, the medium was aspirated, and the formazan crystals were dissolved by adding 100 μL of DMSO to each well. Cytation™ 5 and Cytation™ 7 multi-mode detector (Bio Tek Instruments, Winooski, VT, USA) was used to determine the absorbance readings at a wavelength of 570 nm. The IC50 values were determined based on 3 separate experiments, with each experiment carried out in triplicate.

SMILES | IC50
COc1ccc(C(=O)/C=C/c2ccc(N(C)C)cc2)cc1OC [DML4, (E)-1-[3,4-dimethoxyphenyl]-3-(4-(dimethylamino)phenyl)prop-2-en-1-one] | 66.3 ± 4.6 µM

same assay, conditions: Homo sapiens, A549, 72 h, read-out: IC50 ± SD Lung A549

SMILES | IC50
CCN(CC)c1ccc(/C=C/C(=O)c2ccccn2)cc1 [DML2, (E)-3-[4-(diethylamino)phenyl]-1-(pyridin-2-yl)prop-2-en-1-one] | > 100 µM
COc1ccc(C(=O)/C=C/c2ccc(N(C)C)cc2)cc1OC [DML4, (E)-1-[3,4-dimethoxyphenyl]-3-(4-(dimethylamino)phenyl)prop-2-en-1-one] | 45 ± 22.6 µM

Further lines, results first:

IC50 | SMILES
> 100 µM | CN(C)c1ccc(/C=C/C(=O)c2ccccn2)cc1 [DML1, (E)-3-[4-(dimethylamino)phenyl]-1-(pyridin-2-yl)prop-2-en-1-one]
> 100 µM | COc1ccc(C2CC(c3ccc(N(C)C)cc3)=NN2c2ccccc2)cc1 (stereo not shown) [DML9, 4-(5-[4-methoxyphenyl]-1-phenyl-4,5-dihydro-1H-pyrazol-3-yl)-N,N-dimethylaniline]
> 100 µM | CN(C)c1ccc(C2=NN(c3ccccc3)C(c3ccc(Cl)cc3Cl)C2)cc1 (stereo not shown) [DML12, 4-(5-(2,4-dichlorophenyl)-1-phenyl-4,5-dihydro-1H-pyrazol-3-yl)-N,N-dimethylaniline]

tested on: LOVO; assay: MTT assay, LOVO; type: cell-based; conditions: 72 h, read-out: IC50 ± SD Colon LOVO
Protocol: as §1, §2, §3

SMILES | IC50
COc1ccc(C(=O)/C=C/c2ccc(N(C)C)cc2)cc1OC [DML4, (E)-1-[3,4-dimethoxyphenyl]-3-(4-(dimethylamino)phenyl)prop-2-en-1-one] | 45 ± 22.6 µM

same assay, conditions: Homo sapiens, LoVo, 72 h, read-out: IC50 ± SD Colon LOVO

SMILES | IC50
CCN(CC)c1ccc(/C=C/C(=O)c2ccccn2)cc1 [DML2, (E)-3-[4-(diethylamino)phenyl]-1-(pyridin-2-yl)prop-2-en-1-one] | > 100 µM
COc1ccc(C(=O)/C=C/c2ccc(N(C)C)cc2)cc1OC [DML4, (E)-1-[3,4-dimethoxyphenyl]-3-(4-(dimethylamino)phenyl)prop-2-en-1-one] | 66.3 ± 4.6 µM

Further lines, results first:

IC50 | SMILES
> 100 µM | CN(C)c1ccc(/C=C/C(=O)c2ccccn2)cc1 [DML1, (E)-3-[4-(dimethylamino)phenyl]-1-(pyridin-2-yl)prop-2-en-1-one]
> 100 µM | COc1ccc(C2CC(c3ccc(N(C)C)cc3)=NN2c2ccccc2)cc1 (stereo not shown) [DML9, 4-(5-[4-methoxyphenyl]-1-phenyl-4,5-dihydro-1H-pyrazol-3-yl)-N,N-dimethylaniline]
> 100 µM | CN(C)c1ccc(C2=NN(c3ccccc3)C(c3ccc(Cl)cc3Cl)C2)cc1 (stereo not shown) [DML12, 4-(5-(2,4-dichlorophenyl)-1-phenyl-4,5-dihydro-1H-pyrazol-3-yl)-N,N-dimethylaniline]

tested on: DU145; assay: MTT assay, DU145; type: cell-based; conditions: Homo sapiens, DU-145, 72 h, read-out: IC50 ± SD Prostate DU145
Protocol: as §1, §2, §3

SMILES | IC50
CCN(CC)c1ccc(/C=C/C(=O)c2ccccn2)cc1 [DML2, (E)-3-[4-(diethylamino)phenyl]-1-(pyridin-2-yl)prop-2-en-1-one] | > 100 µM
COc1ccc(C(=O)/C=C/c2ccc(N(C)C)cc2)cc1OC [DML4, (E)-1-[3,4-dimethoxyphenyl]-3-(4-(dimethylamino)phenyl)prop-2-en-1-one] | 22.5 ± 4.9 µM

Next, values leading:

IC50 | SMILES
> 100 µM | CN(C)c1ccc(/C=C/C(=O)c2ccccn2)cc1 [DML1, (E)-3-[4-(dimethylamino)phenyl]-1-(pyridin-2-yl)prop-2-en-1-one]
> 100 µM | COc1ccc(C2CC(c3ccc(N(C)C)cc3)=NN2c2ccccc2)cc1 (stereo not shown) [DML9, 4-(5-[4-methoxyphenyl]-1-phenyl-4,5-dihydro-1H-pyrazol-3-yl)-N,N-dimethylaniline]
> 100 µM | CN(C)c1ccc(C2=NN(c3ccccc3)C(c3ccc(Cl)cc3Cl)C2)cc1 (stereo not shown) [DML12, 4-(5-(2,4-dichlorophenyl)-1-phenyl-4,5-dihydro-1H-pyrazol-3-yl)-N,N-dimethylaniline]

tested on: not given; assay: not given; conditions: not given

SMILES | melting point
CCN(CC)c1ccc(/C=C/C(=O)c2ccccn2)cc1 [DML2, (E)-3-[4-(diethylamino)phenyl]-1-(pyridin-2-yl)prop-2-en-1-one] | 142 °C
COc1ccc(C(=O)/C=C/c2ccc(N(C)C)cc2)cc1OC [DML4, (E)-1-[3,4-dimethoxyphenyl]-3-(4-(dimethylamino)phenyl)prop-2-en-1-one] | 86 °C

More lines, now with the values ahead:

melting point | SMILES
126 °C | CN(C)c1ccc(/C=C/C(=O)c2ccccn2)cc1 [DML1, (E)-3-[4-(dimethylamino)phenyl]-1-(pyridin-2-yl)prop-2-en-1-one]
147 °C | COc1ccc(C2CC(c3ccc(N(C)C)cc3)=NN2c2ccccc2)cc1 (stereo not shown) [DML9, 4-(5-[4-methoxyphenyl]-1-phenyl-4,5-dihydro-1H-pyrazol-3-yl)-N,N-dimethylaniline]
124 °C | CN(C)c1ccc(C2=NN(c3ccccc3)C(c3ccc(Cl)cc3Cl)C2)cc1 (stereo not shown) [DML12, 4-(5-(2,4-dichlorophenyl)-1-phenyl-4,5-dihydro-1H-pyrazol-3-yl)-N,N-dimethylaniline]

tested on: MDA-MB-231; assay: MTT assay, MDA-MB-231; type: cell-based; conditions: 72 h, read-out: IC50 ± SD Breast MDA-MB-231
Protocol: as §1, §2, §3

SMILES | IC50
COc1ccc(C(=O)/C=C/c2ccc(N(C)C)cc2)cc1OC [DML4, (E)-1-[3,4-dimethoxyphenyl]-3-(4-(dimethylamino)phenyl)prop-2-en-1-one] | 26.2 ± 23.9 µM

same assay, conditions: Homo sapiens, MDA-MB-231, 72 h, read-out: IC50 ± SD Breast MDA-MB-231

SMILES | IC50
CCN(CC)c1ccc(/C=C/C(=O)c2ccccn2)cc1 [DML2, (E)-3-[4-(diethylamino)phenyl]-1-(pyridin-2-yl)prop-2-en-1-one] | > 100 µM
COc1ccc(C(=O)/C=C/c2ccc(N(C)C)cc2)cc1OC [DML4, (E)-1-[3,4-dimethoxyphenyl]-3-(4-(dimethylamino)phenyl)prop-2-en-1-one] | 26.7 ± 23.9 µM

Second part, the compound after the results:

IC50 | SMILES
> 100 µM | CN(C)c1ccc(/C=C/C(=O)c2ccccn2)cc1 [DML1, (E)-3-[4-(dimethylamino)phenyl]-1-(pyridin-2-yl)prop-2-en-1-one]
> 100 µM | COc1ccc(C2CC(c3ccc(N(C)C)cc3)=NN2c2ccccc2)cc1 (stereo not shown) [DML9, 4-(5-[4-methoxyphenyl]-1-phenyl-4,5-dihydro-1H-pyrazol-3-yl)-N,N-dimethylaniline]
> 100 µM | CN(C)c1ccc(C2=NN(c3ccccc3)C(c3ccc(Cl)cc3Cl)C2)cc1 (stereo not shown) [DML12, 4-(5-(2,4-dichlorophenyl)-1-phenyl-4,5-dihydro-1H-pyrazol-3-yl)-N,N-dimethylaniline]

tested on: OV2008; assay: MTT assay, OV2008; type: cell-based; conditions: 72 h, read-out: IC50 ± SD Cervical OV2008
Protocol: as §1, §2
The cells were seeded evenly (180 μL/well) in 96-well plates, at a density of 3000–5000 cells/well and incubated with serial dilutions of the compounds ranging from 0.1 to 100 μM. The MTT dye (4 mg/ml) was added after 72 h of incubation and incubated with the cells for an additional 4 h at 37 °C, allowing the viable cells to biotransform the yellow-colored MTT into dark-blue formazan crystals. Following incubation, the medium was aspirated, and the formazan crystals were dissolved by adding 100 μL of DMSO to each well. Cytation™ 5 and Cytation™ 7 multi-mode detector (Bio Tek Instruments, Winooski, VT, USA) was used to determine the absorbance readings at a wavelength of 570 nm. The IC50 values were determined based on 3 separate experiments, with each experiment carried out in triplicate. The selectivity of the compounds was determined by comparing their IC50 values in cervical cancer compared to the normal epithelial cell lines, HEK293, CHO, and CRL1459.

SMILES | IC50
CN(C)c1ccc(/C=C/C(=O)c2ccccn2)cc1 [DML1, (E)-3-[4-(dimethylamino)phenyl]-1-(pyridin-2-yl)prop-2-en-1-one] | > 100 µM
COc1ccc(C2CC(c3ccc(N(C)C)cc3)=NN2c2ccccc2)cc1 (stereo not shown) [DML9, 4-(5-[4-methoxyphenyl]-1-phenyl-4,5-dihydro-1H-pyrazol-3-yl)-N,N-dimethylaniline] | > 100 µM
CCN(CC)c1ccc(/C=C/C(=O)c2ccccn2)cc1 [DML2, (E)-3-[4-(diethylamino)phenyl]-1-(pyridin-2-yl)prop-2-en-1-one] | > 100 µM
CN(C)c1ccc(C2=NN(c3ccccc3)C(c3ccc(Cl)cc3Cl)C2)cc1 (stereo not shown) [DML12, 4-(5-(2,4-dichlorophenyl)-1-phenyl-4,5-dihydro-1H-pyrazol-3-yl)-N,N-dimethylaniline] | > 100 µM
COc1ccc(C(=O)/C=C/c2ccc(N(C)C)cc2)cc1OC [DML4, (E)-1-[3,4-dimethoxyphenyl]-3-(4-(dimethylamino)phenyl)prop-2-en-1-one] | 13.8 ± 7 µM

tested on: HeLa; assay: MTT assay, HeLa; type: cell-based; conditions: 72 h, read-out: IC50 ± SD Cervical HeLa
Protocol: Table S1. The antiproliferative efficacy of the DML1-DML12 compounds on the proliferation of cervical cancer cell line.
Figure S1. The efficacy of DML6 in HeLa cancer cells. The cell-viability curve produced by HeLa cells treated with
vehicle (0 μM), 5 or 10 μM of DML6 after 72 h of incubation. Cell survival was determined using the MTT assay. The
IC50 values are represented as the means ± SD of three independent experiments performed in triplicate. […]

SMILES | IC50
CN(C)c1ccc(/C=C/C(=O)c2ccccn2)cc1 [DML1, (E)-3-[4-(dimethylamino)phenyl]-1-(pyridin-2-yl)prop-2-en-1-one] | 70.7 ± 2.19 µM

same assay, conditions: Homo sapiens, HeLa, 72 h, read-out: IC50 ± SD Cervical HeLa

SMILES | IC50
CCN(CC)c1ccc(/C=C/C(=O)c2ccccn2)cc1 [DML2, (E)-3-[4-(diethylamino)phenyl]-1-(pyridin-2-yl)prop-2-en-1-one] | > 100 µM
COc1ccc(C(=O)/C=C/c2ccc(N(C)C)cc2)cc1OC [DML4, (E)-1-[3,4-dimethoxyphenyl]-3-(4-(dimethylamino)phenyl)prop-2-en-1-one] | 39.5 ± 11.4 µM

Continued, values first:

IC50 | SMILES
> 70 µM | CN(C)c1ccc(/C=C/C(=O)c2ccccn2)cc1 [DML1, (E)-3-[4-(dimethylamino)phenyl]-1-(pyridin-2-yl)prop-2-en-1-one]
> 100 µM | COc1ccc(C2CC(c3ccc(N(C)C)cc3)=NN2c2ccccc2)cc1 (stereo not shown) [DML9, 4-(5-[4-methoxyphenyl]-1-phenyl-4,5-dihydro-1H-pyrazol-3-yl)-N,N-dimethylaniline]
> 100 µM | CN(C)c1ccc(C2=NN(c3ccccc3)C(c3ccc(Cl)cc3Cl)C2)cc1 (stereo not shown) [DML12, 4-(5-(2,4-dichlorophenyl)-1-phenyl-4,5-dihydro-1H-pyrazol-3-yl)-N,N-dimethylaniline]

tested on: HEK293; assay: MTT assay, HEK293; type: cell-based, human; conditions: 72 h, read-out: IC50 ± SD Kidney HEK293
Protocol: as §1, §2, §3

SMILES | IC50
COc1ccc(C(=O)/C=C/c2ccc(N(C)C)cc2)cc1OC [DML4, (E)-1-[3,4-dimethoxyphenyl]-3-(4-(dimethylamino)phenyl)prop-2-en-1-one] | 68.5 ± 2.1 µM

same assay, conditions: Homo sapiens, HEK293, 72 h, read-out: IC50 ± SD Kidney HEK293

SMILES | IC50
CN(C)c1ccc(/C=C/C(=O)c2ccccn2)cc1 [DML1, (E)-3-[4-(dimethylamino)phenyl]-1-(pyridin-2-yl)prop-2-en-1-one] | > 100 µM
COc1ccc(C2CC(c3ccc(N(C)C)cc3)=NN2c2ccccc2)cc1 (stereo not shown) [DML9, 4-(5-[4-methoxyphenyl]-1-phenyl-4,5-dihydro-1H-pyrazol-3-yl)-N,N-dimethylaniline] | > 100 µM
CCN(CC)c1ccc(/C=C/C(=O)c2ccccn2)cc1 [DML2, (E)-3-[4-(diethylamino)phenyl]-1-(pyridin-2-yl)prop-2-en-1-one] | > 100 µM
CN(C)c1ccc(C2=NN(c3ccccc3)C(c3ccc(Cl)cc3Cl)C2)cc1 (stereo not shown) [DML12, 4-(5-(2,4-dichlorophenyl)-1-phenyl-4,5-dihydro-1H-pyrazol-3-yl)-N,N-dimethylaniline] | > 100 µM
COc1ccc(C(=O)/C=C/c2ccc(N(C)C)cc2)cc1OC [DML4, (E)-1-[3,4-dimethoxyphenyl]-3-(4-(dimethylamino)phenyl)prop-2-en-1-one] | > 65 µM
